Earlier results, collected in patent US20050123615A1, “Controlled release dosage forms of azithromycin” (Pfizer Inc, priority 2003, published 2005).

Conditions: 3,995 human patients, all dose levels combined, oral

CC[C@H]1OC(=O)[C@H](C)[C@@H](O[C@H]2C[C@@](C)(OC)[C@@H](O)[C@H](C)O2)[C@H](C)[C@@H](O[C@@H]2O[C@H](C)C[C@H](N(C)C)[C@H]2O)[C@](C)(O)C[C@@H](C)CN(C)[C@H](C)[C@@H](O)[C@]1(C)O [azithromycin, 9a-aza-9a-methyl-9-deoxo-9a-homoerythromycin A]
patients reporting GI side effects: 9.6%
patients reporting abdominal pain: 2.5%
patients reporting diarrhea: 3.6%
patients reporting nausea: 2.6%
